“Also recorded” adds a separate entry of the source.
Assays:
[1] = system: sensitized response to an acute AMPH challenge; conditions: mice; Husum 2005, poster no. 32.06; cited from earlier work
[2] = system: AMPH+CDP induced locomotor activity; conditions: rats; Lamberty, et al. 2001; cited from earlier work
[3] = system: sensitized response to an acute AMPH challenge; test: Sensitized AMPH response model (induced hyperactivity); assay type: in vivo, Male Crl:NMRI mice; conditions: for effect on AMPH induced hyperactivity in sensitized mice: s.c. pre-treatment, about 30 min recording
Description: (§1) Subjects: Male Crl:NMRI mice (about 20 g) were at the animal facility about 5 days prior to the start of the experiment and were housed in climate-controlled animal facilities under normal light-dark cycle (lights on about 06:00 to about 18:00). The mice were kept 6 per cage and allowed enrichment (two plastic houses+nesting material).
(§2) Drugs: All compounds were administered subcutaneously and are listed as free base doses. The mice were pre-treated with either d-amphetamine (about 1.8 mg/kg) or vehicle (about 0.9% NaCl, about 10 ml/kg) once daily for five consecutive days.
Test procedure: About 17-19 days after the pre-treatment, the animals were treated with test substance or vehicle and individually placed to habituate for about 30 min in motility boxes (about 20×about 32 cm) equipped with about 5×about 8 light sources and infrared cells spaced by about 4 cm. The light beams crossed the cage 1.8 cm above the bottom of the cage. Recording of a motility count requires interruption of adjacent light beams, thus avoiding counts induced by stationary movements of the mice. After habituation, an acute dose of d-amphetamine (about 0.95 mg/kg) or vehicle was administered and data acquisition was begun and lasted for about 30 min.
(§3) Data Analysis: Data were averaged within the groups (n=12) and are presented as mean±SD. The acute effect of test substance against the sensitized response to amphetamine was statistically evaluated by one-way ANOVA of variance: Dunn's method was applied for post hoc testing against the sensitized group receiving (NaCl, about 1 ml/kg) followed by CDP (about 8.9 mg/kg in 10% hydroxypropyl-beta-cyclodextrin) was administrated about 35 minutes before the test. A parallel set of control animal received two vehicle injections.

[4] = system: baseline locomotor activity of control rats; test: Baseline locomotor activity of control rats in locomotor box; assay type: in vivo, Male Wistar rats; conditions: for Average Crossings in % (SEM): % of control group set to 100%; for effect on baseline (basal) locomotor activity: locomotor box about 2 hours, administered doses
Description: (§4) Subjects: Male Wistar rats weighing about 150-200 g were housed 2-4 rats per cage in makrolon cages (about 20×about 35 cm) equipped with sawdust and with one plastic house for enrichment. The animals were kept at room temperature (about 20° C.±2) in about 12-hour light/dark cycle (lights on at about 06:00) with free access to food and tap water. The rats were allowed to acclimatize to the animal facility premises for about 5-9 days prior to the initiation of experiments. The animals were taken to the experimental room on the day before the experiment and weighed.
(§5) Test procedure: For the assessment of locomotor activity, makrolon cages (about 20×about 35 cm) with a thin layer of standard bedding material were placed in a U-frame equipped longitudinally with 4 infrared light sources and photocells placed about 4 cm above the bottom of the cage. All experiments were conducted under normal light conditions. The animals were placed individually in test boxes and the assessment of locomotor activity was immediately begun. During the test session, locomotor activity was recorded as crossings of infrared light beams and total locomotor activity was the accumulated number of crossings over the approximately 120-min period. The recording of a motility count required the crossing of two adjacent light beams, thus avoiding counts induced by stationary movements of the rat.
Statistical analysis of differences in total locomotor activity (normalized data) among the various treatment groups was carried out using a two-way ANOVA with factors treatment (AMPH+CDP vs. vehicle) and drug (drug vs. vehicle). In case of a significant interaction, a post hoc Student-Newman-Keuls Method was used for multiple comparisons. A probability level of 0.05 was considered significant.

[5] = system: AMPH+CDP induced locomotor activity; test: Sensitized AMPH+CDP response model (induced locomotor hyperactivity); assay type: in vivo, Male Wistar rats; conditions: for effect on AMPH+CDP induced locomotor activity (hyperactivity): rats, s.c. pre-treatment, about 120 min test-period
Description: as §4
Drugs: All drugs are listed as mg free base/kg with the exception of lithium (mEq/kg). Drug solutions were titrated into a pH range of about 4.5-7.0 for subcutaneous (s.c.) administration. To induce hyperactivity, amphetamine sulphate (about 0.9 mg/kg in about 0.9% NaCl, about 1 ml/kg) followed by CDP (7-Chloro-2-(methylmino)-5-phenyl-3h-1,4-benzodiazepine-4-oxide, about 8.9 mg/kg in about 10% hydroxypropyl-beta-cyclodextrin) was administrated about 35 minutes before the test. A parallel set of control animal received two vehicle injections. Lithium chloride (about 0.2-0.9 mEq/kg) was dissolved in distilled water isosmotically supplemented with NaCl, and administrated about 210 minutes before testing. Lamotrigine (6-(2,3-Dichloro-phenyl)-[1,2,4]-triazine-3,5-diamine, about 2.5-80 mg/kg) was dissolved in about 10% hydroxypropyl-beta-cyclodextrin and administrated about 30 minutes before the test.
as §5
Data Analysis: The average total basal locomotor activity of the control groups in the different experiments varied between 322-516 light beam crossings (see Table 1). Due to this variation, the results in each experiment were normalized to percentage activity relative to the average total locomotor activity of control group that was set as 100%. Statistical analysis of differences in total locomotor activity (normalized data) among the various treatment groups was carried out using a two-way ANOVA with factors treatment (AMPH+CDP vs. vehicle) and drug (drug vs. vehicle). In case of a significant interaction, a post hoc Student-Newman-Keuls Method was used for multiple comparisons. A probability level of 0.05 was considered significant.
Crossings of light-beams as a measure of locomotor activity over about a 120 min test-period is shown as percentage of the control group-level that is set to 100%. The bars show the mean±SEM for each group and the dots show the activity of individual rats (n=10-12). Administration of amphetamine (about 0.9 mg/kg, s.c.) and chlordiazepoxide (about 8.9 mg/kg, s.c.) produced a significant increase in locomotor activity (***p<0.001 vs. control group (O) in all experiments).

α1-adrenergic receptors = conditions: Sanchez et al. 1991; Arnt and Skarsfeldt 1998; cited from earlier work
saline activity = test: Activity of saline (non-AMPH) mice in the sensitized AMPH response model; assay type: in vivo, Male Crl:NMRI mice; conditions: sertindole about 0.63 mg/kg
Description: as §1, §2
Test procedure: About 17-19 days after the pre-treatment, the animals were treated with test substance or vehicle and individually placed to habituate for about 30 min in motility boxes (about 20×about 32 cm) equipped with about 5×about 8 light sources and infrared cells spaced by about 4 cm. The light beams crossed the cage 1.8 cm above the bottom of the cage. […]
as §3, with “A parallel set of control animal received two vehicle injections.” left out

dopamine D2 = dopamine D2 (Homo sapiens, UniProt P14416); conditions: Sanchez et al. 1991; Arnt and Skarsfeldt 1998; cited from earlier work
Sequence of dopamine D2 (P14416 whole entry): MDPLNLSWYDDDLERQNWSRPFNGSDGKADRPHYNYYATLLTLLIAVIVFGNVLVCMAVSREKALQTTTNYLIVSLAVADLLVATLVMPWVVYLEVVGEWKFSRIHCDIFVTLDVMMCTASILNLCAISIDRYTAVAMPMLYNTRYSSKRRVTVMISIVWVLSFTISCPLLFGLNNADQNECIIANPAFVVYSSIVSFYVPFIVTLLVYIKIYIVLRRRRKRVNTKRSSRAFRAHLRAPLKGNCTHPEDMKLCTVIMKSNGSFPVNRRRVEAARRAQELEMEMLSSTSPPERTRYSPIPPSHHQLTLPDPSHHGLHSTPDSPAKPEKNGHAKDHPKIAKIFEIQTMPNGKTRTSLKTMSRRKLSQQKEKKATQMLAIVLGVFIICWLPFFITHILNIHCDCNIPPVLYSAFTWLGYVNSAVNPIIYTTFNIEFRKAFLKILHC

serotonin 5-HT2 = conditions: Sanchez et al. 1991; Arnt and Skarsfeldt 1998; cited from earlier work
schizophrenic patients = conditions: human clinical studies; Daniel D, et al. 1995; cited from earlier work

NC(=O)N1c2ccccc2C=Cc2ccccc21 [carbamazepine]
effect on the sensitized response to an acute AMPH challenge [1]: dose-dependently abolish; also recorded: reversed the effect of acute AMPH administration | effectiveness in the AMPH+CDP induced hyperactivity model [2]: effective

CN(C)CCCC1(c2ccc(F)cc2)OCc2cc(C#N)ccc21 (centres unmarked) [citalopram]
effect on AMPH induced hyperactivity in sensitized mice [3]: no effect | effect on AMPH induced hyperactivity in sensitized mice ([3]; listed as Citalopram): inactive | Average Crossings in % (SEM) ([4]; 0.8 mg/kg): 71.0% | effect on baseline (basal) locomotor activity [4]: no significant effect

O=C(CCCN1CCC(O)(c2ccc(Cl)cc2)CC1)c1ccc(F)cc1 [haloperidol]
effect on the sensitized response to an acute AMPH challenge [1]: reversed the effect of acute AMPH administration

Nc1nnc(-c2cccc(Cl)c2Cl)c(N)n1 [lamotrigine, 6-(2,3-Dichloro-phenyl)-[1,2,4]-triazine-3,5-diamine]
effect on the sensitized response to an acute AMPH challenge [1]: dose-dependently abolish; also recorded: reversed the effect of acute AMPH administration | significance of reduction of AMPH+CDP induced locomotor activity ([5]; lamotrigine about 20 mg/kg, about 30 min s.c. pre-treatment): significant | significance of reduction of AMPH+CDP induced locomotor activity ([5]; lamotrigine about 20 mg/kg, about 30 min s.c. pre-treatment, listed as Lamotrigine): significantly counteracted | significance of reduction of AMPH+CDP induced locomotor activity ([5]; lamotrigine about 40 mg/kg, about 30 min s.c. pre-treatment): significant | significance of reduction of AMPH+CDP induced locomotor activity ([5]; lamotrigine about 40 mg/kg, about 30 min s.c. pre-treatment, listed as Lamotrigine): significantly counteracted | significance of reduction of AMPH+CDP induced locomotor activity ([5]; lamotrigine about 80 mg/kg, about 30 min s.c. pre-treatment): significant | significance of reduction of AMPH+CDP induced locomotor activity ([5]; lamotrigine about 80 mg/kg, about 30 min s.c. pre-treatment, listed as Lamotrigine): significantly counteracted | effect on AMPH+CDP induced locomotor activity (hyperactivity) [5]: significantly reduced; also recorded: reduced the induced locomotor activity | effect on AMPH+CDP induced locomotor activity (hyperactivity) ([5]; listed as Lamotrigine): significantly and dose-dependently decreased | Average Crossings in % (SEM) ([4]; 2.5 mg/kg): 114.5% | Average Crossings in % (SEM) ([4]; 10 mg/kg): 107.9% | Average Crossings in % (SEM) ([4]; 20 mg/kg): 97.2% | Average Crossings in % (SEM) ([4]; 40 mg/kg): 82.0% | Average Crossings in % (SEM) ([4]; 80 mg/kg): 83.0% | effect on baseline (basal) locomotor activity [4]: not reduced; also recorded: no significant effect

O=C1NCCN1CCN1CCC(c2cn(-c3ccc(F)cc3)c3ccc(Cl)cc23)CC1 [sertindole]
effect on AMPH+CDP induced locomotor activity (hyperactivity) [5]: reduced the induced locomotor activity; also recorded: significantly decreased; also recorded: active | significance of reduction of AMPH+CDP induced locomotor activity ([5]; sertindole about 0.16 mg/kg, about 120 min s.c. pre-treatment): significant | significance of reduction of AMPH+CDP induced locomotor activity ([5]; sertindole about 1.25 mg/kg, about 120 min s.c. pre-treatment): significant | affinity for α1-adrenergic receptors (α1-adrenergic receptors): high affinity | effect on saline activity (saline activity): significantly decreased the saline activity | effect on AMPH induced hyperactivity in sensitized mice [3]: reversed the induced hyperactivity; also recorded: significantly decreased; also recorded: active | effect on induced hyperactivity ([3]; sertindole 0.16 mg/kg): significantly reversed the induced hyperactivity | affinity for dopamine D2 (dopamine D2): high affinity | affinity for serotonin 5-HT2 (serotonin 5-HT2): high affinity | Average Crossings in % (SEM) ([4]; 0.02 mg/kg): 116.7% | Average Crossings in % (SEM) ([4]; 0.16 mg/kg): 119.9% | Average Crossings in % (SEM) ([4]; 1.25 mg/kg): 132.4% | effect on baseline (basal) locomotor activity [4]: no significant effect | doses effective to treat schizophrenic patients (schizophrenic patients): 12 to 24 mg/day

CCCC(CCC)C(=O)O [valproate]
effect on the sensitized response to an acute AMPH challenge [1]: dose-dependently abolish; also recorded: reversed the effect of acute AMPH administration | effectiveness in the AMPH+CDP induced hyperactivity model [2]: effective
